Key:
human OTR = molecular target: T1, human OTR (Homo sapiens, UniProt P30559); test: Inhibition activity on human OTR (Fluo-4 calcium assay, HEK293/human OTR stably transfected cells, oxytocin 3 nM); assay type: cell-based; conditions: calcium signal
T1 construct: expressed in transfected cells
T1 sequence (P30559 1-389): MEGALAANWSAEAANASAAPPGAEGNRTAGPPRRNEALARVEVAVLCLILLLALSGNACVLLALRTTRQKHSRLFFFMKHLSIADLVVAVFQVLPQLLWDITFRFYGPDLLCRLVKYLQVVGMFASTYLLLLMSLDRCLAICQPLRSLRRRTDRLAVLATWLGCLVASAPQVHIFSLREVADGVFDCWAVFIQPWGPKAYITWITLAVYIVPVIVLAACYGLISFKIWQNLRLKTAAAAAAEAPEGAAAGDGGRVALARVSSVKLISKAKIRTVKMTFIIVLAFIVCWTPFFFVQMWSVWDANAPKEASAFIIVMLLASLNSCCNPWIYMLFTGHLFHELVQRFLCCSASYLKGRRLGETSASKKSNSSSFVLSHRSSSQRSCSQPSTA
Method: The inhibition effect of the compounds of the present invention on the activity of human OTR protein expressed in HEK293/human OTR stably transfected cells was determined by the following experimental method:
The pcDNA3.1-hOTR plasmid was transferred into HEK293 cells with the Lipofectamine® 3000 transfection reagent; G418 was added on the next day to screen, and monoclonal cell lines were selected.
(§1) HEK293/human OTR stably transfected cells were inoculated in a 96-well plate with an inoculation density of 25,000 cells/well one day in advance. On the next day, a loading buffer containing Fluo-4 dye was formulated using the reagents in the Fluo-4 NW calcium assay kit, and the culture medium was then removed; 100 μl of the loading buffer containing Fluo-4 dye were added to each well, and the plate was incubated at 37° C. for 30 minutes. After that, the plate was moved to room temperature and equilibrated for 10 minutes. The compounds were formulated into concentration gradients of 10^6, 10^5, 10^4, 10^3, 10^2 and 10^1 nM. 1 μl of the compounds in each concentration was added to each well, and the plate was incubated at room temperature for 10 minutes. 50 μl of oxytocin polypeptide (3 nM) were automatically added by the machine, and the values were immediately detected at 494/516 nM by the flexstation 3 microplate reader. IC50 values of the compounds were calculated by Graphpad prism software using fluorescence signals corresponding to different concentrations.
The inhibition activity of the compounds of the present invention on human OTR was determined by the above test, and the obtained IC50 values are shown in Table 1.

human V1bR = molecular target: T2, human V1bR (Homo sapiens, UniProt P47901); test: Inhibition activity on human V1bR (Fluo-4 calcium assay, HEK293/human V1bR pool cells, vasopressin 3 nM); assay type: cell-based; conditions: calcium signal
T2 construct: expressed in transfected cells; host or cells: HEK293 (G418-selected pool)
T2 sequence (P47901 1-424): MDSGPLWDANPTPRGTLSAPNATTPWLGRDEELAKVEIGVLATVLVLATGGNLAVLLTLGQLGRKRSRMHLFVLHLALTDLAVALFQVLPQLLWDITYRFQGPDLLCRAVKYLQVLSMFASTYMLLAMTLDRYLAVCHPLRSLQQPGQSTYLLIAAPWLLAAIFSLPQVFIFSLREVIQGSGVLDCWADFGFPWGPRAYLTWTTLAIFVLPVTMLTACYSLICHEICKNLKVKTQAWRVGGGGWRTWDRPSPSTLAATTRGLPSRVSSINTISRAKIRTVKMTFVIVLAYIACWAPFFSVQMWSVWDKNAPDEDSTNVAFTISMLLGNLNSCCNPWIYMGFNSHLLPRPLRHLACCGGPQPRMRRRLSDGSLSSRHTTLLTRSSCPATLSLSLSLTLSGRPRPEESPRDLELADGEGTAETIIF
Method: The inhibition effect of the compounds of the present invention on the activity of human V1bR protein expressed in HEK293/human V1bR cells was determined by the following experimental method:
The pcDNA3.1-V1bR plasmid was transferred into HEK293 cells with the Lipofectamine® 3000 transfection reagent; G418 was added on the next day, and the HEK293/human V1bR pool cell lines were obtained.
as §1, with “V1bR pool” for “OTR stably transfected”, “50 μl of oxytocin polypeptide (3 nM) were automatically added by the machine, and the values were immediately detected at 494/516 nM by the flexstation 3 microplate reader.” left out

| Compound | IC50 (human OTR) [µM] | IC50 (human V1bR) [µM] |
| --- | --- | --- |
| COCc1nnc(N2C[C@@H]3C[C@]3(c3cccc(F)c3Cl)C2)n1-c1ccc(OC)nc1 [Example 4, (1S,5R)-1-(2-Chloro-3-fluorophenyl)-3-(5-(methoxymethyl)-4-(6-methoxypyridin-3-yl)-4H-1,2,4-triazol-3-yl)-3-azabicyclo[3.1.0]hexane] | 0.029 | 59.4 |
| CCOCc1nnc(N2C[C@@H]3C[C@]3(c3ccc(F)cc3Cl)C2)n1-c1ccc(OC)nc1 [Example 6, (1S,5R)-1-(2-Chloro-4-fluorophenyl)-3-(5-(ethoxymethyl)-4-(6-methoxypyridin-3-yl)-4H-1,2,4-triazol-3-yl)-3-azabicyclo[3.1.0]hexane] | 0.0043 | 27.9 |
| COCc1nnc(N2C[C@@H]3C[C@]3(c3ccc(F)cc3Cl)C2)n1-c1ccc(OC)nc1 [Example 9, (1S,5R)-1-(2-Chloro-4-fluorophenyl)-3-(5-(methoxymethyl)-4-(6-methoxypyridin-3-yl)-4H-1,2,4-triazol-3-yl)-3-azabicyclo[3.1.0]hexane] | 0.014 | 37.6 |

Further lines, results first:

| IC50 (human OTR) [µM] | IC50 (human V1bR) [µM] | Compound |
| --- | --- | --- |
| 0.044 | 24.5 | COc1ccc(-n2c(COCCF)nnc2N2C[C@@H]3C[C@]3(c3ccc(F)cc3Cl)C2)cn1 [Example 1, (1S,5R)-1-(2-Chloro-4-fluorophenyl)-3-(5-((2-fluoroethoxy)methyl)-4-(6-methoxypyridin-3-yl)-4H-1,2,4-triazol-3-yl)-3-azabicyclo[3.1.0]hexane] |
| 0.03 | 11.7 | COc1ccc(-n2c(N3C[C@@H]4C[C@]4(c4ccc(F)cc4Cl)C3)nnc2C(F)(F)F)cn1 [Example 12, (1S,5R)-1-(2-Chloro-4-fluorophenyl)-3-(4-(6-methoxypyridin-3-yl)-5-(trifluoromethyl)-4H-1,2,4-triazol-3-yl)-3-azabicyclo[3.1.0]hexane] |
